Measured values from ChEMBL document CHEMBL4382228, “Small molecules as inhibitors of PCSK9: Current status and future challenges” (Eur J Med Chem, 2019).

Tests used:
[1] = tested on: Hepatocyte; experiment: Inhibition of PCSK9 mRNA expression in mouse primary hepatocytes at 2.5 uM after 24 hrs relative to control; type: functional
[2] = tested on: HepG2; experiment: Inhibition of PCSK9 mRNA expression in human HepG2 cells after 24 hrs by SYBR Green I dye-based qRT-PCR analysis; type: functional, cell-based; details: HepG2, 24 h
[3] = target: 80S Ribosome; experiment: Binding affinity to 80S ribosome in human HuH7 cells expressing human C-terminal V5/6-His-tagged PCSK9 assessed as inhibition of PCSK9 secretion after 16 to 24 hrs by AlphaLISA method; type: cell-based; details: huh-7
[4] = target: T1, Proprotein convertase subtilisin/kexin type 9 (Homo sapiens, UniProt Q8NBP7); experiment: Inhibition of human recombinant PCSK9 expressed in CHO-K1 cells assessed as alkaline phosphatase secretion incubated overnight and measured after 3 days by HTS assay; type: cell-based
T1 sequence (Q8NBP7 31-152 limits assumed): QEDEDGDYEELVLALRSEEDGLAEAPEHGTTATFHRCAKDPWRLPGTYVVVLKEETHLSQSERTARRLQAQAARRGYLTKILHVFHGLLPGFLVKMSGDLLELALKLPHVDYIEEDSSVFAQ
T1 sequence (Q8NBP7 153-692 limits assumed): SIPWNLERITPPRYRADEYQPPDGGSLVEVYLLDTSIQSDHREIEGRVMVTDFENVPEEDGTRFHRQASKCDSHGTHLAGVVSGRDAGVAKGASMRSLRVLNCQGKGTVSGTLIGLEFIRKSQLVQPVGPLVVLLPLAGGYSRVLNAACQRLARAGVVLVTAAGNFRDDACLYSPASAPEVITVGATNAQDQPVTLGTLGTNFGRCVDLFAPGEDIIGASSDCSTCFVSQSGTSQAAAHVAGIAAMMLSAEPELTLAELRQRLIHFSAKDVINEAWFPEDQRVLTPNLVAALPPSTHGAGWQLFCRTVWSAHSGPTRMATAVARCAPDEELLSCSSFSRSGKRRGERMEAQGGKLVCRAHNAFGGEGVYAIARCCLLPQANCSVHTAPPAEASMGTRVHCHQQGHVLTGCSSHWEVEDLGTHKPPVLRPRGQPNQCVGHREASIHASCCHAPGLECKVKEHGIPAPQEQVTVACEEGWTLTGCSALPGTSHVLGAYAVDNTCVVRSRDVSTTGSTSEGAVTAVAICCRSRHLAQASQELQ

[5] = target: T1, Proprotein convertase subtilisin/kexin type 9; experiment: Inhibition of human recombinant full length ProLabel-tagged PCSK9 expressed in CHO-K1 cells incubated overnight and measured after 3 days by HTS assay; type: cell-based
[6] = tested on: CHO-K1; experiment: Cytotoxicity against CHOK1 cells expressing human recombinant full length ProLabel-tagged PCSK9 after overnight incubation by CellTiter blue assay; type: cell-based; details: Cricetulus griseus
[7] = target: T1, Proprotein convertase subtilisin/kexin type 9; experiment: Inhibition of human recombinant full length ProLabel-tagged PCSK9 expressed in CHO-K1 cells incubated overnight and measured after 3 days by chemiluminescence assay; type: cell-based
[8] = tested on: Mus musculus; experiment: Decrease in cholesterol level in C57BL/6 mouse fed with high fat diet at 10 mg/kg, po administered daily for 5 days relative to control; type: functional; design: scale not given: the % may be the effect or the level left
[9] = target: T1, Proprotein convertase subtilisin/kexin type 9; experiment: Binding affinity to PCSK9 (unknown origin) by SPR assay
[10] = tested on: Hepatocyte; experiment: Inhibition of PCSK9 mRNA expression in mouse primary hepatocytes at 2 uM after 24 hrs relative to control; type: functional
[11] = tested on: HepG2; experiment: Inhibition of PCSK9 mRNA expression in human HepG2 cells at 20 uM after 24 hrs by qRT-PCR analysis relative to control; type: functional; details: HepG2, 24 h
[12] = tested on: HepG2; experiment: Inhibition of PCSK9 mRNA expression in human HepG2 cells after 24 hrs by qRT-PCR analysis; type: functional, cell-based; details: HepG2, 24 h
[13] = tested on: HepG2; experiment: Inhibition of PCSK9 mRNA expression in human HepG2 cells by SYBR Green I dye-based qRT-PCR analysis; type: functional, cell-based
[14] = target: T1, Proprotein convertase subtilisin/kexin type 9; experiment: Inhibition of PCSK9 in human HepG2 cells assessed as increase in LDL uptake after 24 hrs by fluorescence assay; type: cell-based
[15] = target: T1, Proprotein convertase subtilisin/kexin type 9; experiment: Inhibition of wild type His-tagged PCSK9 (unknown origin) binding to recombinant LDLR-AB domain (unknown origin) after 2 hrs by fluorescence assay
[16] = tested on: Huh-7; experiment: Inhibition of PCSK9 mRNA expression in human HuH7 cells at 2 uM after 24 hrs by qRT-PCR assay relative to control; type: functional; details: Huh-7, 24 h
[17] = tested on: Huh-7; experiment: Increase in LDLR mRNA expression in human HuH7 cells at 2 uM after 24 hrs by qRT-PCR assay relative to control; type: functional
[18] = tested on: Huh-7; experiment: Increase in LDLR protein expression in human HuH7 cells at 2 uM after 24 hrs by immunoblotting assay relative to control; type: functional

## COc1cc2c(cc1-c1c(C)noc1C)ncc1[nH]c(=O)n([C@H](C)c3ccccn3)c12
[1]
  inhibition at 2.5 µM: > 90%

## COc1cc([C@@H]2O[C@H](c3cc(O)c(OC)c(OC)c3)[C@@H](C)[C@@H]2C)ccc1O
[2]
  IC50: 3.15 µM

## O=C(c1ccc(-n2nnc3cccnc32)cc1)N(c1ncccc1Cl)[C@@H]1CCCNC1
[3]
  IC50: 0.3 µM

## COc1ccc(CCC(=O)N(c2nccc3ccccc23)[C@@H]2CCCNC2)cc1
[4]
  IC50: > 10 µM
[5]
  IC50: 4.8 µM
[6]
  IC50: > 10 µM
[7]
  IC50: < 10 µM

## Cc1cc(C(=O)C2=C(O)C(=O)N(CCCN3CCOCC3)C2c2ccncc2)ccc1OCc1ccccc1 (configuration not stated)
[8]
  Activity: 20 - 38%

## CCN(CC)C(=O)c1ccc(NC(=O)CSc2nnc(-c3cccs3)n2C2CC2)cc1
[8]
  Activity: 20 - 38%

## CC(C)C[C@H](C(=O)N1CCN([C@@H](CC(N)=O)C(=O)N[C@@H](CCCNC(=N)N)C(=O)N[C@H]2CCOC2=O)CC1)N1C(=O)N[C@@H](CC(=O)O)C1=O
[9]
  Kd: 24.8 µM

## Cc1sc2c(c1C)C(c1ccccc1)=N[C@@H](CC(=O)OC(C)(C)C)c1nnc(C)n1-2
[10]
  inhibition at 2 µM: > 90%

## COc1cc(O)cc2c1C(=O)[C@H](O)[C@@H](c1ccccc1O)O2
[11]
  inhibition at 20 µM: 84.4%

## CC(C)C[C@@H](C(=O)N[C@H](CCCCN)C(=O)N[C@H]1CCOC1=O)N1CCN(C(=O)[C@H](CS)N2C(=O)N[C@H](CC(N)=O)C2=O)CC1
[9]
  Kd: 41.2 µM

## O=C(Nc1ccc(-c2nc3ccccc3o2)cc1)c1ccc(NC(=O)c2cc3ccccc3o2)cc1
[8]
  Activity: 20 - 38%

## CN1C(=O)c2cc(NC(=O)c3ccc(C(F)(F)F)cc3)ccc2OC[C@@H]2O[C@H](CC(=O)NC3Cc4ccccc4C3)CC[C@@H]21
[12]
  EC50: 0.36 µM

## CC(C)C[C@H](C(=O)N1CCN([C@@H](CC#N)C(=O)N[C@@H](CCCNC(=N)N)C(=O)N[C@H]2CCOC2=O)CC1)N1C(=O)N[C@@H](CC(=O)O)C1=O
[9]
  Kd: 35.8 µM

## COC(=O)c1c(C)cc(O[C@@H]2O[C@H](CO)[C@@H](O)[C@H]2O)c(OC)c1O
[13]
  IC50: 20.1 µM

## CC(C)[C@@H](C)/C=C/[C@@H](C)[C@H]1CCC2=C3[C@@H](O)[C@@H]4O[C@@]45C[C@@H](O)CC[C@]5(C)[C@H]3CC[C@@]21C
[13]
  IC50: 8.23 µM

## COc1cc2c(c(OC)c1OC)-c1c(cc3c(c1OC)OCO3)C[C@@H](C)[C@@](C)(O)C2
[2]
  IC50: 1.1 µM

## Cc1ccc(N2CCN(C(=O)c3ccc(NC(N)=O)cc3)C(c3ccccc3)C2)cc1Cl (configuration not stated)
[8]
  Activity: 20 - 38%

## Cn1cccc1-c1ccc(-c2ccc(-c3ccc(-c4ccccc4)n3C)n2C)n1C
[14]
  EC50: 6.04 µM
[15]
  IC50: 11.2 µM

## CC(=O)Nc1ccc(C(=O)N2CCN(c3ccc(C)c(Cl)c3)CC2c2ccccc2)cc1 (configuration not stated)
[8]
  Activity: 20 - 38%

## COc1cc2c(c(O)c1O)COC2=O
[13]
  IC50: 7.18 µM

## C/C=C(/C)C(=O)Oc1c2c(cc3c1-c1c(cc(OC)c(OC)c1OC)C[C@](C)(O)[C@@H](C)C3)OCO2
[2]
  IC50: 0.36 µM

## Nc1ncnc2c1ncn2[C@@H]1O[C@H](CO)[C@@H](O)[C@H]1O [ADENOSINE]
[13]
  IC50: 18.5 µM

## O=c1c(O[C@@H]2O[C@H](CO)[C@@H](O)[C@H](O)[C@H]2O)c(-c2ccc(O)c(O)c2)oc2cc(O)cc(O)c12 [ISOQUERCETIN]
[16]
  inhibition at 2 µM: 20 to 30%
[17]
  Activity: 60%
[18]
  Activity: 300 - 400%

## CC(C)=CCc1c(O)cc(-c2cc3ccc(O)cc3o2)cc1O [MORACIN C]
[2]
  IC50: 16.8 µM

## COc1c2c(cc3c1-c1c(cc4c(c1OC)OCO4)C[C@H](C)[C@H](C)C3)OCO2 [SCHISANDRIN C]
[2]
  IC50: 3.85 µM

## COc1cccc(O)c1-c1cc(=O)c2c(O)c(OC)c(OC)c(OC)c2o1 [SKULLCAPFLAVONE II]
[11]
  inhibition at 20 µM: 42.4%
